Patent US10000483B2, “Bone marrow on X chromosome kinase (BMX) inhibitors and uses thereof” (Dana-Farber Cancer Institute, Inc., priority 2012, dated 2018)
Values joined by “and” are separate entries in the source; they are usually repeats but may differ in a detail not shown here. Equal values may be shown once.

Assays:
mTOR = mTOR (Homo sapiens (Human), UniProt P42345); assay: Invitrogen Select Screening in vitro kinase assay; assay type: biochemical
Text: (§1) The in vitro activity of compounds of Formula (I) and (II) in inhibiting BMX and other kinases were obtained using an Invitrogen Select Screening assay as known in the art. The IC50 values determined from this assay are shown below.

BTK = BTK (Homo sapiens (Human), UniProt Q06187); assay: Invitrogen Select Screening in vitro kinase assay; assay type: biochemical
BTK, sequence (Q06187 whole entry): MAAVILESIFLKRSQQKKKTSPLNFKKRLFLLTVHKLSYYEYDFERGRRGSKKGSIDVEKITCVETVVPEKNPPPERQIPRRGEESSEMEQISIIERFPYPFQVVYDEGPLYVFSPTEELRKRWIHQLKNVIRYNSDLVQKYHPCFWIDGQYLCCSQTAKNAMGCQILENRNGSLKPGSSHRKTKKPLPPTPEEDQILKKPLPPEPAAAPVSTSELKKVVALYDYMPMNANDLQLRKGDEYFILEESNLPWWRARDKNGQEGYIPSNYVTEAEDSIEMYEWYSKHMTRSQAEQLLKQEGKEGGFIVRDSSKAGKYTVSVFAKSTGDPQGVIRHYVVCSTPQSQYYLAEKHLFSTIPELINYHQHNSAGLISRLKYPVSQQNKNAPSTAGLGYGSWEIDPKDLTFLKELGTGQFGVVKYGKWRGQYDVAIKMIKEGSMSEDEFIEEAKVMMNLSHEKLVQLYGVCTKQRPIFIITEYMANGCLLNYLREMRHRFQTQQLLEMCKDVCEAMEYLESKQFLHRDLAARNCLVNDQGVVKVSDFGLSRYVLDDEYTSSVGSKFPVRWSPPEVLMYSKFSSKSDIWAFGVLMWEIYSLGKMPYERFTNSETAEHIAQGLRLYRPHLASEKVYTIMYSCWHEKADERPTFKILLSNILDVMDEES

BMX [1] = target: T1, BMX (Homo sapiens (Human), UniProt P51813); assay: Invitrogen Select Screening in vitro kinase assay; assay type: biochemical
T1 sequence (P51813 whole entry): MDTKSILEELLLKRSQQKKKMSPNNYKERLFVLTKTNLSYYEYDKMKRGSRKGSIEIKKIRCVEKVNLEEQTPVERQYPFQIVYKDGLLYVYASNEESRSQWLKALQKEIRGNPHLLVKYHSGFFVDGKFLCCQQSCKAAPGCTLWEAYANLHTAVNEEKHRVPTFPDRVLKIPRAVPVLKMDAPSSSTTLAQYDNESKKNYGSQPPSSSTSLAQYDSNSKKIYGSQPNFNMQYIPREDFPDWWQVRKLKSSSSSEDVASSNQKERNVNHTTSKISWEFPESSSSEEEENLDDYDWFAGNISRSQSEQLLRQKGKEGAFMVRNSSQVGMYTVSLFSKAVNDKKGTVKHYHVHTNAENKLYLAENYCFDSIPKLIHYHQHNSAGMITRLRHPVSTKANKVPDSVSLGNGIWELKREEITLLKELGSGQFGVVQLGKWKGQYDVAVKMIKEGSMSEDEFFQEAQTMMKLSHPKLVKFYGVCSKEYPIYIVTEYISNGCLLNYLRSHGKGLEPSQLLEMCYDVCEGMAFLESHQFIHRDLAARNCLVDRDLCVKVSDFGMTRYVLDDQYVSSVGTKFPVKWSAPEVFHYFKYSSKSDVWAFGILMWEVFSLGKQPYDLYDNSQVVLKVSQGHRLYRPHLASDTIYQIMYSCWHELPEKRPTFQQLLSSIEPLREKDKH

BCWM.1 cells = assay: Cell proliferation analysis for WM and lymphoma cell lines (CellTiter-Glo); assay type: cell-based; settings: BCWM1; 72 hours
TEC = TEC (Homo sapiens (Human), UniProt P42680); assay: Invitrogen Select Screening in vitro kinase assay; assay type: biochemical
TEC, sequence (P42680 whole entry): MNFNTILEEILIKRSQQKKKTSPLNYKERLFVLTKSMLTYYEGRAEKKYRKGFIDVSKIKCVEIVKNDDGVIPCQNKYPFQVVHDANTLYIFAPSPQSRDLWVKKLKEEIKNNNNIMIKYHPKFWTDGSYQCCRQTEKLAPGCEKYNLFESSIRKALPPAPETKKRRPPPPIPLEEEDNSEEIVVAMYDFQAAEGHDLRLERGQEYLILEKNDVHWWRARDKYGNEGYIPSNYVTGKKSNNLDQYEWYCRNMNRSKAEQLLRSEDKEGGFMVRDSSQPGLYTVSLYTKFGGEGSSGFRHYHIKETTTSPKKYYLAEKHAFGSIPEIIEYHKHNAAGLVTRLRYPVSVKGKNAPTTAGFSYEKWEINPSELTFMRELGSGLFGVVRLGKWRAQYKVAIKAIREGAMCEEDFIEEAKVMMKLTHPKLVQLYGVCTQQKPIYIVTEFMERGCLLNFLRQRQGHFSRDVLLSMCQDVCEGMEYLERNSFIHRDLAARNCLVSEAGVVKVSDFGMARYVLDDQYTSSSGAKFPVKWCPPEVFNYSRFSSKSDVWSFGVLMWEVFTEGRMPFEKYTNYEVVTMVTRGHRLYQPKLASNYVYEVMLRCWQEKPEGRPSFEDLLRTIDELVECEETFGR
Text: as §1

BLK = BLK (Homo sapiens (Human), UniProt P51451); assay: Invitrogen Select Screening in vitro kinase assay; assay type: biochemical
BLK, sequence (P51451 whole entry): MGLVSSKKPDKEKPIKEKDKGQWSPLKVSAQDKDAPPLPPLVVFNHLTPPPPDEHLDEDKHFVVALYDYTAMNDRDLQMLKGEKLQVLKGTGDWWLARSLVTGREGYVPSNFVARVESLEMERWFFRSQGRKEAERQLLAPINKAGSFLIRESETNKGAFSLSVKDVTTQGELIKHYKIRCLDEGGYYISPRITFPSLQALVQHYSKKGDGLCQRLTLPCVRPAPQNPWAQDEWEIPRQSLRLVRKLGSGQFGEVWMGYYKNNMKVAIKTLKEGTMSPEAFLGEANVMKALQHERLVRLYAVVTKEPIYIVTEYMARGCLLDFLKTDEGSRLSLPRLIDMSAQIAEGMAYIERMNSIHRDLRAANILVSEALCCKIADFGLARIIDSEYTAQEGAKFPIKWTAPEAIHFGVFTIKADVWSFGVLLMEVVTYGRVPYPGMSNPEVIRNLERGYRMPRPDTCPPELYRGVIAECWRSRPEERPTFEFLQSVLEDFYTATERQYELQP
Text: as §1

OCI-Ly3 cells = assay: Cell proliferation analysis for WM and lymphoma cell lines (CellTiter-Glo); assay type: cell-based; settings: Homo sapiens, 72 hours
OCI-Ly19 cells = assay: as above; assay type: cell-based; settings: Homo sapiens, 72 hours
JAK3 = JAK3 (Homo sapiens (Human), UniProt P52333); assay: Invitrogen Select Screening in vitro kinase assay; assay type: biochemical
JAK3, sequence (P52333 whole entry): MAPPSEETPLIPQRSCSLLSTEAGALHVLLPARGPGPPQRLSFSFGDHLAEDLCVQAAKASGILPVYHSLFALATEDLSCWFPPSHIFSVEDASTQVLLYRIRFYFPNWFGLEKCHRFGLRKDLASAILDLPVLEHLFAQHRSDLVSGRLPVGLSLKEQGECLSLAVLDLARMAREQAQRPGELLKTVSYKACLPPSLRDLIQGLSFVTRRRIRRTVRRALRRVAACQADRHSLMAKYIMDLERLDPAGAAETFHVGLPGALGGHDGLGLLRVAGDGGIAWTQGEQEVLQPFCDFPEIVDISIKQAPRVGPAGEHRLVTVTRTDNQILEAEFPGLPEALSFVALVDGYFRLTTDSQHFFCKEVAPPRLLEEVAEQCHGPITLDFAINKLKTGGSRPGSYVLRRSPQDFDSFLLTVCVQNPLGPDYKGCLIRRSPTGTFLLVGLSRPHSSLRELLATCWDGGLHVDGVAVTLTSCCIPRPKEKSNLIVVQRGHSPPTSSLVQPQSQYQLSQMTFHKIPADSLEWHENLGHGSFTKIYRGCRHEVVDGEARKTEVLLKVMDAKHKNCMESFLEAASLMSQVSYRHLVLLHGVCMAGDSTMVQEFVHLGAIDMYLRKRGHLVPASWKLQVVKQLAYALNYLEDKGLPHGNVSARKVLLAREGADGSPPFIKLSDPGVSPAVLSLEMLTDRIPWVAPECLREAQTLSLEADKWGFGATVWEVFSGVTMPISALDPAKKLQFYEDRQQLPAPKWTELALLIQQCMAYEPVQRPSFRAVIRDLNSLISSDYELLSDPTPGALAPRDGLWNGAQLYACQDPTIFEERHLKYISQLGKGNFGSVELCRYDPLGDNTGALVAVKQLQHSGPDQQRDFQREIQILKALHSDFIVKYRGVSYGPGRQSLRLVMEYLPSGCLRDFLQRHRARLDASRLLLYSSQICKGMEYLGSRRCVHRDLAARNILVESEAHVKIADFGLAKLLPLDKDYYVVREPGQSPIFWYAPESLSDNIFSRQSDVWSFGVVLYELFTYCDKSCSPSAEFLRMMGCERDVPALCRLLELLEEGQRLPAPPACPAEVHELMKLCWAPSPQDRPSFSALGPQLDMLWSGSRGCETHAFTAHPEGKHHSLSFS

Ramos cells = assay: Cell proliferation analysis for WM and lymphoma cell lines (CellTiter-Glo); assay type: cell-based; settings: Homo sapiens, 72 hours
MWCL-1 cells = assay: as above; assay type: cell-based; settings: 72 hours
PRCIWM-1 cells = assay: as above; assay type: cell-based; settings: 72 hours
Protocol: CellTiter-Glo® Luminescent cell viability assay (Promega) was used to assess cell survival following treatment with an inhibitor compound of Formula (I) or (II) (e.g., 1-14). Various cell lines were used including Waldenström's macroglobulinemia (WM) cell lines (BCWM.1, MWCL-1, RPCI-WM1) and B-cell lymphoma cell lines (OCI-Ly3, Ramos, OCI-Ly19). Cells were seeded into 384 well plates with the EL406 Combination Washer Dispenser (BioTek Instruments, Inc.) and inhibitor compounds were injected into the cells culture media with the JANUS Automated Workstation (PerkinElmer Inc.). Cells were treated with a series diluted inhibitor compounds (20˜0.04 μM) for 72 hours at 37° C. Luminescent measurement is performed using the 2104 Envision® Multilabel Reader (PerkinElmer Inc.).

RV-1 cells = assay: Anti-proliferation assay for prostate cancer cells (CellTiter-Glo); assay type: cell-based
Protocol: Data were normalized to control group (DMSO) and represented by the mean of at least two independent measurement with standard error <20%. GI50 were calculated using Prism 5.0 (GraphPad Software, San Diego, Calif.).

wild-type (WT) BMX = wild-type (WT) BMX (Homo sapiens (Human), UniProt P51813); assay: IP kinase assay, BMX autophosphorylation; assay type: biochemical; settings: FIG. 15
wild-type (WT) BMX, sequence (P51813 whole entry): as the sequence (P51813 whole entry) above
Text: FIG. 15 confirms that the potency of the BMX inhibitors is due to covalent binding to cysteine 496.

BMX [2] = target: T1, BMX; assay: BMX protein levels in RV-1 cells; assay type: cell-based; settings: 72 h treatment, 5 μM
Text: Moreover, the depletion could be rescued upon stable overexpression of the C496S mutant BMX.

| Compound | IC50 (mTOR) [nM] | IC50 (BTK) [nM] | IC50 (BMX [1]) | EC50 (BCWM.1 cells) [nM] | EC50 (OCI-Ly3 cells) [nM] | EC50 (OCI-Ly19 cells) [nM] | EC50 (Ramos cells) [nM] | EC50 (MWCL-1 cells) [nM] | further results |
| --- | --- | --- | --- | --- | --- | --- | --- | --- | --- |
| C=CC(=O)Nc1cc(-n2c(=O)ccc3cnc4ccc(-c5cnc6ccccc6c5)cc4c32)ccc1C [II-16] | 32 | 25 | 18.5 nM and 19 nM | – | – | – | – | – | – |
| C=CC(=O)N1CCc2ccc(-n3c(=O)ccc4cnc5ccc(-c6ccc(N)nc6)cc5c43)cc21 [II-13] | 98 | 6 | 13.3 nM and 13 nM | 770 | 1670 | 100 | 1350 | 2470 | IC50 (TEC): 27 nM; IC50 (BLK): 300 nM; IC50 (JAK3): 5.64 µM |
| C=CC(=O)Nc1cc(-n2c(=O)ccc3cnc4ccc(-c5ccc(N)nc5)cc4c32)ccc1C [II-5] | 17 | 16 | 12.9 nM and 13 nM | 643 | 408 | 454 | 872 | 1550 | EC50 (PRCIWM-1 cells): 86 nM |
| C=CC(=O)Nc1cc(-n2c(=O)ccc3cnc4ccc(Nc5ccc6ccncc6c5)cc4c32)ccc1C [I-26] | – | – | – | 3580 | 3340 | 659 | 3830 | 6820 | EC50 (PRCIWM-1 cells): 663 nM |
| C=CC(=O)Nc1cc(-n2c(=O)ccc3cnc4ccc(-c5ccc(COc6cccc(C(F)(F)F)c6)cc5)cc4c32)ccc1C [I-13] | – | 37 | 18.1 nM and 28 nM | – | – | – | – | – | – |
| C=CC(=O)Nc1cc(-n2c(=O)ccc3cnc4ccc(-c5ccc(C(N)=O)cc5)cc4c32)ccc1C [I-15] | – | 79 | – | – | – | – | – | – | – |
| C=CC(=O)N1CCc2ccc(-n3c(=O)ccc4cnc5ccc(-c6cn[nH]c6)cc5c43)cc21 [II-14] | 209 | 12 | 8.75 nM and 9 nM | 320 | 500 | 160 | 360 | 650 | IC50 (TEC): 57 nM; IC50 (BLK): 247 nM; IC50 (JAK3): 2.15 µM |
| C=CC(=O)Nc1cc(-n2c(=O)ccc3cnc4ccc(-c5ccccc5)cc4c32)ccc1C [I-7] | 210 | 25 | 15.9 nM and 16 nM | 180 | 380 | 10 | 310 | 950 | IC50 (BLK): 250 nM |
| C=CC(=O)N1CCc2ccc(-n3c(=O)ccc4cnc5ccc(-c6ccc(C(=O)NC)cc6F)cc5c43)cc21 [I-9] | – | 54 | – | – | – | – | – | – | – |
| C=CC(=O)Nc1cc(-n2c(=O)ccc3cnc4ccc(-c5ccc6occc6c5)cc4c32)ccc1C [I-20] | – | – | – | 1020 | 1100 | > 20000 | 602 | 798 | – |
| C=CC(=O)Nc1cc(-n2c(=O)ccc3cnc4ccc(Nc5ccc6cnccc6c5)cc4c32)ccc1C [I-27] | – | – | – | 1350 | 2590 | 374 | 6280 | 9150 | EC50 (PRCIWM-1 cells): 345 nM |
| C=CC(=O)N1CCc2ccc(-n3c(=O)ccc4cnc5ccc(-c6ccc(N7CCN(C)CC7)cc6)cc5c43)cc21 [I-17] | 516 | 155 | 399 nM | 490 | 1120 | 80 | 420 | 1780 | IC50 (JAK3): 5.58 µM |
| C=CC(=O)N1CCc2ccc(-n3c(=O)ccc4cnc5ccc(-c6ccc(S(=O)(=O)NC(C)(C)C)cc6)cc5c43)cc21 [I-11] | 536 | 11 | 18.1 nM and 18 nM | – | – | – | – | – | – |
| C=CC(=O)Nc1cc(-n2c(=O)ccc3cnc4ccc(-c5cnn(C)c5)cc4c32)ccc1C [II-3] | 173 | 14 | 8.16 nM and 8 nM | – | – | – | – | – | – |
| C=CC(=O)Nc1cccc(-n2c(=O)ccc3cnc4ccc(-c5cn[nH]c5)cc4c32)c1 [II-8] | 41 | 18 | 10.5 nM and 11 nM | – | – | – | – | – | – |
| C=CC(=O)Nc1cc(-n2c(=O)ccc3cnc4ccc(-c5ccsc5)cc4c32)ccc1C [II-9] | 369 | 39 | 19.7 nM and 20 nM | – | – | – | – | – | – |
| C=CC(=O)N1CCc2ccc(-n3c(=O)ccc4cnc5ccc(-c6ccc(COc7cccc(C(F)(F)F)c7)cc6)cc5c43)cc21 [I-10] | – | 1060 | > 10000 nM | 2120 | 3660 | 290 | 3770 | 5750 | – |

| Compound | IC50 (mTOR) [nM] | IC50 (BTK) [nM] | IC50 (BMX [1]) | EC50 (BCWM.1 cells) [nM] | EC50 (OCI-Ly3 cells) [nM] | EC50 (OCI-Ly19 cells) [nM] | EC50 (Ramos cells) [nM] | EC50 (MWCL-1 cells) [nM] | further results |
| --- | --- | --- | --- | --- | --- | --- | --- | --- | --- |
| CCC(=O)Nc1cc(-n2c(=O)ccc3cnc4ccc(-c5ccc(NS(C)(=O)=O)cc5)cc4c32)ccc1C [I-14R] | – | – | – | – | – | – | – | – | concentration with antiproliferative effects against RV-1 cells (RV-1 cells): ≥ 10 µM; concentration inhibiting autophosphorylation of wild-type BMX (wild-type (WT) BMX): > 10,000 nM; BMX protein levels in RV-1 cells (BMX [2]): not |
| C=CC(=O)Nc1cc(-n2c(=O)ccc3cnc4ccc(/C=C/c5ccccc5)cc4c32)ccc1C [I-16] | – | 105 | 27.8 nM and 28 nM | 490 | 1120 | 80 | 420 | 1780 | – |
| C=CC(=O)Nc1cc(-n2c(=O)ccc3cnc4ccc(Nc5ccc6cccnc6c5)cc4c32)ccc1C [I-28] | – | – | – | 4440 | 3590 | 1050 | 3430 | 7490 | EC50 (PRCIWM-1 cells): 691 nM |
| C=CC(=O)N1CCc2ccc(-n3c(=O)ccc4cnc5ccc(-c6cnc7ccccc7c6)cc5c43)cc21 [II-12] | 59 | 7 | 5.62 nM and 6 nM | – | – | – | – | – | – |
| C=CC(=O)Nc1cc(-n2c(=O)ccc3cnc4ccc(-c5ccc(NC(=O)NC)cc5)cc4c32)ccc1C [I-8] | – | 66 | 40.6 nM | – | – | – | – | – | IC50 (JAK3): 4.17 µM |
| C=CC(=O)Nc1cc(-n2c(=O)ccc3cnc4ccc(-c5ccc6[nH]ncc6c5)cc4c32)ccc1C [I-22] | – | – | – | 203 | 180 | 51 | 91 | 117 | – |
| C=CC(=O)Nc1cccc(-n2c(=O)ccc3cnc4ccc(-c5ccc(N)nc5)cc4c32)c1 [II-7] | 19 | 19 | 15.7 nM and 16 nM | – | – | – | – | – | – |
| C=CC(=O)N1CCc2ccc(-n3c(=O)ccc4cnc5ccc(-c6cnc(N)cc6C(F)(F)F)cc5c43)cc21 [II-15] | – | 337 | – | – | – | – | – | – | – |
| C=CC(=O)Nc1cc(-n2c(=O)ccc3cnc4ccc(-c5ccoc5)cc4c32)ccc1C [II-10] | 4790 | 17 | 12.1 nM and 12 nM | 410 | 480 | 70 | 280 | 2160 | IC50 (JAK3): 0.492 µM |
| C=CC(=O)Nc1cc(-n2c(=O)ccc3cnc4ccc(Nc5ccc6ncccc6c5)cc4c32)ccc1C [I-29] | – | – | – | 2200 | 3080 | 390 | 2570 | 7290 | EC50 (PRCIWM-1 cells): 528 nM |
| C=CC(=O)Nc1cc(-n2c(=O)ccc3cnc4ccc(-c5ccc6c(c5)OCO6)cc4c32)ccc1C [I-23] | – | – | – | 849 | 1170 | 19 | 653 | 610 | – |
| C=CC(=O)Nc1cc(-n2c(=O)ccc3cnc4ccc(-c5cnn(S(=O)(=O)c6ccccc6)c5)cc4c32)ccc1C [II-23] | – | – | – | 643 | 408 | 454 | 872 | 1550 | EC50 (PRCIWM-1 cells): 86 nM |
| C=CC(=O)Nc1cc(-n2c(=O)ccc3cnc4ccc(-c5ccc6ccncc6c5)cc4c32)ccc1C [I-21] | – | – | – | 93 | 109 | 90 | 57 | 56 | – |
| C=CC(=O)Nc1cc(-n2c(=O)ccc3cnc4ccc(-c5cccnc5)cc4c32)ccc1C [II-11] | 1 | 115 | 66.1 nM and 66 nM | 190 | 240 | 90 | 200 | 670 | IC50 (BLK): 1950 nM; IC50 (JAK3): 1.52 µM |
| C=CC(=O)Nc1cc(-n2c(=O)ccc3cnc4ccc(-c5ccc6c(c5)OCCO6)cc4c32)ccc1C [I-18] | 642 | 16 | 13.3 nM and 13 nM | – | – | – | – | – | – |
| C=CC(=O)Nc1cc(-n2c(=O)ccc3cnc4ccc(-c5ccc6ocnc6c5)cc4c32)ccc1C [I-24] | – | – | – | 345 | 516 | 24 | 355 | 284 | – |
